Read-outs that look alike come from different tables or passages of the source.
Assays:
[1] = set-up: method as in PMID 31736685; conditions: in vivo; cited from earlier work
[2] = tested on: native GABAARs expressed in δKO mice forebrain membranes; test: AA29504 effect on [^3H]GABA binding, δKO forebrain membranes; set-up: species or system mouse; conditions: increasing concentrations of AA29504, 15 min, 22 °C
Method: (§1) WT and δKO forebrain membranes were prepared using the method of Squires and Saederup as modified by Uusi-Oukari et al.. Homogenized and washed membranes were suspended in 10 mM Tris–HCl, pH 7.4 and stored at -70 °C.

[3] = tested on: native GABAARs expressed in δKO mice forebrain membranes; test: AA29504 effect on [^3H]muscimol binding, δKO forebrain membranes; set-up: species or system mouse; conditions: increasing concentrations of AA29504, 15 min, 22 °C
Method: as §1

[4] = molecular target: T1, recombinant α6β3γ2 GABAARs expressed in HEK293 cells (Rattus norvegicus, UniProt P18508+P30191+P63079); test: GABA-independent displacement of [^3H]EBOB binding, recombinant α6β3γ2
T1 construct: expressed in transfected cells; host or cells: HEK293, transient calcium phosphate transfection, pRK5 plasmids, 1:1:1
T1 sequence (P30191 20-453): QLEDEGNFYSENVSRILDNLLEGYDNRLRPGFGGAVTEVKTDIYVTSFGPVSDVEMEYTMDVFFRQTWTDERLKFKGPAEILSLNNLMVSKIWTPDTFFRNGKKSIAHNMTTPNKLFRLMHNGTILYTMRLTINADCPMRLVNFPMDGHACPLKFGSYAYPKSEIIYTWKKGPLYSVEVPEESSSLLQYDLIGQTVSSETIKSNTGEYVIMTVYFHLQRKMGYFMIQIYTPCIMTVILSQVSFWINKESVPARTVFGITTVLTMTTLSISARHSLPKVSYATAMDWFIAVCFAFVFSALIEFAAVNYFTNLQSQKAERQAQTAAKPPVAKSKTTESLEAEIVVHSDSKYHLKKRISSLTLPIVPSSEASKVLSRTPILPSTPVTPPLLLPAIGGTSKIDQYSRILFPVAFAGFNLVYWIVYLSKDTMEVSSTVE
T1 sequence (P63079 26-473): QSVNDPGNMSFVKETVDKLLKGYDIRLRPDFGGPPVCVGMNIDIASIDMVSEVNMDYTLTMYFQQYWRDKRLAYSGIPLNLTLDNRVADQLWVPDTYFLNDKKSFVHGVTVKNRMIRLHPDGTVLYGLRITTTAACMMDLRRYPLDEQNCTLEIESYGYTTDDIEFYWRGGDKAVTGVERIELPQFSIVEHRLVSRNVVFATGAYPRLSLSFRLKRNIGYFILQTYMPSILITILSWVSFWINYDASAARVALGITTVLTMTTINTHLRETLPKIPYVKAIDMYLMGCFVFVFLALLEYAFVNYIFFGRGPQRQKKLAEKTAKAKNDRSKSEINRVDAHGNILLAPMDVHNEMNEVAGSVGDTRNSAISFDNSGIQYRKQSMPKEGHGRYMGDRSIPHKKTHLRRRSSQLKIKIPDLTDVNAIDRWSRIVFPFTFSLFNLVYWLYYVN
T1 sequence (P18508 39-466): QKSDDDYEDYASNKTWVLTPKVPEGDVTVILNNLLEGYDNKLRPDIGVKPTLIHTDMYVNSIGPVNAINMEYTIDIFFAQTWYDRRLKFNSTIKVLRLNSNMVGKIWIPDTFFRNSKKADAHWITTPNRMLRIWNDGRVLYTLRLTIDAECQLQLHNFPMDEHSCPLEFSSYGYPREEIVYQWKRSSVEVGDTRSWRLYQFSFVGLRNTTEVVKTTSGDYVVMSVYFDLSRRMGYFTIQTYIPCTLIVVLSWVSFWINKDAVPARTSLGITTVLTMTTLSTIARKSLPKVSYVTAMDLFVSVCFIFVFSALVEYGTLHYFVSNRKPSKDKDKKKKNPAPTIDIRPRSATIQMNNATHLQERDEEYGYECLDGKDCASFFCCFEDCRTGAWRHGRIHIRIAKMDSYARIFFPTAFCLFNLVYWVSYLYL
Method: (§2) Triplicate samples were incubated with shaking for 2 h. […] The incubations were terminated as described above for [^3H]muscimol binding.
(§3) GraphPad Prism software (GraphPad, San Diego, CA, USA) was used for nonlinear least squares curve-fitting and statistical testing of association, dissociation, saturation binding and radioligand displacement data. The association and dissociation curves were used for the estimation of association (Kon) and dissociation (Koff) rate constants. Saturation binding curves were used for the estimation of total number of high-affinity binding sites (Bmax), and equilibrium dissociation constants (KD). […] Statistical comparisons were made with One-way ANOVA, Two-way ANOVA or Brown-Forsythe and Welch ANOVA followed by the relevant (Tukey’s or Dunnett’s) post hoc tests for multiple comparisons. […] The study samples were not randomized and analysis was performed in a parallel unblinded mode.

[5] = set-up: method as in PMID 20060846, PMID 22579928, PMID 20957350; conditions: 60 min post 2 mg/kg, s.c. in mice; cited from earlier work
[6] = molecular target: T2, recombinant α6β3 GABAARs expressed in HEK293 cells (Rattus norvegicus, UniProt P30191+P63079); test: GABA-independent displacement of [^3H]EBOB binding, recombinant α6β3
T2 construct: expressed in transfected cells; host or cells: HEK293, transient calcium phosphate transfection, pRK5 plasmids
T2 sequence (P30191 20-453): as the sequence (P30191 20-453) above
T2 sequence (P63079 26-473): as the sequence (P63079 26-473) above
Method: as §2, §3

[7] = tested on: native GABAARs expressed in WT mice forebrain membranes; test: AA29504 effect on [^3H]GABA binding, WT forebrain membranes; set-up: species or system mouse; conditions: increasing concentrations of AA29504, 15 min, 22 °C
Method: as §1

[8] = tested on: native GABAARs expressed in WT mice forebrain membranes; test: AA29504 effect on [^3H]muscimol binding, WT forebrain membranes; set-up: species or system mouse; conditions: increasing concentrations of AA29504, 15 min, 22 °C
Method: as §1

[9] = tested on: GABAARs in WT forebrain membranes; test: [^3H]muscimol association and dissociation, WT forebrain membranes; type: binding, mouse
Method: as §1
(§4) The effect of AA29504 on the association and dissociation of [^3H]muscimol binding was measured essentially as described by Benkherouf et al.. Saturation analysis of [^3H]muscimol was performed essentially as described by Uusi-Oukari and Korpi. Triplicate samples of the membranes were incubated in assay buffer with a concentration series of [^3H]muscimol (1–50 nM) at room temperature (22 °C) for 60 min in the absence and presence of 10 µM AA29504. […] .
(§5) GraphPad Prism software (GraphPad, San Diego, CA, USA) was used for nonlinear least squares curve-fitting and statistical testing of association, dissociation, saturation binding and radioligand displacement data. The association and dissociation curves were used for the estimation of association (Kon) and dissociation (Koff) rate constants. Saturation binding curves were used for the estimation of total number of high-affinity binding sites (Bmax), and equilibrium dissociation constants (KD). […] . Statistical comparisons were made with One-way ANOVA, Two-way ANOVA or Brown-Forsythe and Welch ANOVA followed by the relevant (Tukey’s or Dunnett’s) post hoc tests for multiple comparisons. […] . The study samples were not randomized and analysis was performed in a parallel unblinded mode.

[10] = molecular target: recombinant α6β2δ GABAARs expressed in HEK293 cells (Rattus norvegicus, UniProt P18506+P30191+P63138); test: AA29504 effect on [^3H]muscimol binding, recombinant α6β2δ; conditions: HEK293, 4 concentrations of AA29504
recombinant α6β2δ GABAARs expressed in HEK293 cells, sequence (P30191 20-453): as the sequence (P30191 20-453) above
recombinant α6β2δ GABAARs expressed in HEK293 cells, sequence (P63138 25-474 limits assumed): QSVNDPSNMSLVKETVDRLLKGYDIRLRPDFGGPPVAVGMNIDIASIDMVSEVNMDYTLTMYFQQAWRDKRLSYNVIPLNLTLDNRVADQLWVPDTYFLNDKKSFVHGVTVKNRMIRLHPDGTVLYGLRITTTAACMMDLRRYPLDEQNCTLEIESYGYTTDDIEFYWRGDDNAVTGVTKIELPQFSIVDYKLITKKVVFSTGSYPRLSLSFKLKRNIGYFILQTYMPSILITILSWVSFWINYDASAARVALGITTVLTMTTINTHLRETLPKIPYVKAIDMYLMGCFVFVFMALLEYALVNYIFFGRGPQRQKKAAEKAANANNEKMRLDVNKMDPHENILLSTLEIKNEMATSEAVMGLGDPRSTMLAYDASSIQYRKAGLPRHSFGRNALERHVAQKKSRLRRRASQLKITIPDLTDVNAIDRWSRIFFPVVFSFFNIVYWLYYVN
recombinant α6β2δ GABAARs expressed in HEK293 cells, sequence (P18506 17-449 limits assumed): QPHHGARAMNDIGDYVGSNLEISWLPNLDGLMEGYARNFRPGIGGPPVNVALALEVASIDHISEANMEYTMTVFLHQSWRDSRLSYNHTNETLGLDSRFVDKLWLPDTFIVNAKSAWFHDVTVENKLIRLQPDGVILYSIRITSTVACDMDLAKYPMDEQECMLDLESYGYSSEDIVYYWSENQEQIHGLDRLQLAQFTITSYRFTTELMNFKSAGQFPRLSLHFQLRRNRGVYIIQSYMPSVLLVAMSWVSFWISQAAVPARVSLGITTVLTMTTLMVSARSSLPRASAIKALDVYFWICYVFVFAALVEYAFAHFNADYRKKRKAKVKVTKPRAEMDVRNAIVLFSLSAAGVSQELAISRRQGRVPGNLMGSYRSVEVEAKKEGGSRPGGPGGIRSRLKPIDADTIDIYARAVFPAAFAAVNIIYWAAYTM
Method: (§6) Human embryonic kidney (HEK) 293 cells were maintained at + 37 °C/10% CO2 in Dulbecco’s Modified Eagle’s Medium (DMEM) (Gibco, Gaithersburg, MD, USA), supplemented with 3.7 g/L NaHCO3, 10% Fetal Bovine Serum (FBS) (Gibco, Gaithersburg, MD, USA), 50,000 U/L penicillin and 50 mg/L streptomycin (Sigma-Aldrich, St Louis, MO, USA). The cells were divided and plated on 10 cm culture dishes for binding assays 24 h before transfection. HEK293 cells were transfected with rat cDNAs (α1, α6, β2, β3, γ2S, δ) in pRK5 plasmids [39] under the control of cytomegalovirus (CMV) promoter using calcium phosphate transfection method essentially as described by Lüddens and Korpi [40]. The plasmids were used in 1:1 and 1:1:1 ratios for transfections containing 2 [(α6) + (β3)] or 3 [(α1 or α6) + (β2 or β3) + (γ2S or δ)] different subunits, respectively (5 μg of each plasmid DNA for a 10 cm plate). The cells were incubated at 37 °C/10% CO2 for 24 h post-transfection. Old culture medium was replaced with fresh medium and the incubation resumed for another 24 h. The cells were harvested 48 h post-transfection. […]
(§7) Individually pooled triplicate membrane samples (3 total binding and 3 non‐specific binding) were incubated with shaking for 15 min. The effect of AA29504 on binding was determined in the presence of various concentrations of AA29504. […]

[11] = molecular target: recombinant α6β2γ2 GABAARs expressed in HEK293 cells (Rattus norvegicus, UniProt P18508+P30191+P63138); test: AA29504 effect on [^3H]muscimol binding, recombinant α6β2γ2; conditions: α6β2γ2, HEK293, 4 concentrations of AA29504
recombinant α6β2γ2 GABAARs expressed in HEK293 cells, sequence (P30191 20-453): as the sequence (P30191 20-453) above
recombinant α6β2γ2 GABAARs expressed in HEK293 cells, sequence (P63138 25-474 limits assumed): as the sequence (P63138 25-474 limits assumed) above
recombinant α6β2γ2 GABAARs expressed in HEK293 cells, sequence (P18508 39-466): as the sequence (P18508 39-466) above
Method: as §6, §7

[12] = tested on: GABAARs in δKO forebrain membranes; test: [^3H]muscimol association and dissociation, δKO forebrain membranes; type: binding, mouse
Method: as §1, §4, §5

[13] = molecular target: recombinant α1β2γ2 GABAARs expressed in HEK293 cells (Rattus norvegicus, UniProt P18508+P62813+P63138); test: AA29504 effect on [^3H]muscimol binding, recombinant α1β2γ2; conditions: α1β2γ2, HEK293, 4 concentrations of AA29504
recombinant α1β2γ2 GABAARs expressed in HEK293 cells, sequence (P62813 28-455): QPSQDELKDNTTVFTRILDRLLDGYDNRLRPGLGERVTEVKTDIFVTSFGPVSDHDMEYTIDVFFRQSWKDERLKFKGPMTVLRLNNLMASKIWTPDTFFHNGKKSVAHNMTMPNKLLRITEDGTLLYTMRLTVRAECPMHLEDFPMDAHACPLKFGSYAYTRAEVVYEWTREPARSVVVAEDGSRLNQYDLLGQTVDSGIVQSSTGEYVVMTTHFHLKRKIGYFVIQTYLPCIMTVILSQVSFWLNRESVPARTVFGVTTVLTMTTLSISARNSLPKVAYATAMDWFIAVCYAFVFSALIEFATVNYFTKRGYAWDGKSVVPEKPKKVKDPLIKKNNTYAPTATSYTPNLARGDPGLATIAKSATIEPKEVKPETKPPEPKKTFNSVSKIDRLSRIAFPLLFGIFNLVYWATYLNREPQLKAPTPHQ
recombinant α1β2γ2 GABAARs expressed in HEK293 cells, sequence (P63138 25-474): as the sequence (P63138 25-474 limits assumed) above
recombinant α1β2γ2 GABAARs expressed in HEK293 cells, sequence (P18508 39-466): as the sequence (P18508 39-466) above
Method: as §6, §7

[14] = molecular target: T3, recombinant α6β3δ GABAARs expressed in HEK293 cells (Rattus norvegicus, UniProt P18506+P30191+P63079); test: GABA-independent displacement of [^3H]EBOB binding, recombinant α6β3δ
T3 construct: expressed in transfected cells; host or cells: HEK293, transient calcium phosphate transfection, pRK5 plasmids, 1:1:1
T3 sequence (P30191 20-453): as the sequence (P30191 20-453) above
T3 sequence (P63079 26-473): as the sequence (P63079 26-473) above
T3 sequence (P18506 17-449 limits assumed): as the sequence (P18506 17-449 limits assumed) above
Method: as §2, §3

[15] = tested on: native GABAARs expressed in δKO forebrain membranes; type: binding, mouse; conditions: read-out: IC50 of agonist-induced [^3H]EBOB displacement
Method: as §1, §2, §3

[16] = tested on: native GABAARs expressed in WT forebrain membranes; type: binding, mouse; conditions: read-out: IC50 of agonist-induced [^3H]EBOB displacement
Method: as §1, §2, §3

[17] = molecular target: GABAARs in δKO mouse forebrain membranes; test: Saturation analysis of [^3H]muscimol binding, δKO forebrain membranes; conditions: one-site model
Method: as §1, §4
as §5, with “The study samples were not randomized and analysis was performed in a parallel unblinded mode.” left out

[18] = molecular target: GABAARs in WT mouse forebrain membranes; test: Saturation analysis of [^3H]muscimol binding, WT forebrain membranes
Method: as §1, §4, §5

[19] = 10 µM AA29504, 2 nM [^3H]muscimol, control binding without AA29504
[20] = 2 nM [^3H]muscimol, 22 °C, absence of AA29504

SMILES: O=C(Nc1c(-c2cccs2)nc2ccccn12)c1ccc(Cl)cc1 [DS2, 4-chloro-N-[2-(2-thienyl)imidazo[1,2-a]pyridin-3-yl]benzamide]
- brain bioavailability [1]: limited brain bioavailability

SMILES: CCOC(=O)Nc1ccc(NCc2c(C)cc(C)cc2C)cc1N [AA29504, [2-amino-4-(2,4,6-trimethylbenzylamino)-phenyl]-carbamic acid ethyl ester]
- effect on 5 nM [^3H]GABA binding [2]: concentration-dependent stimulation
- effect on 2 nM [^3H]muscimol binding [3]: concentration-dependent stimulation
- concentration at which GABA-independent radioligand displacement was evident ([4]; α6β3γ2, 1 nM [^3H]EBOB): ≥ 300 nM
- IC50 ([4]; α6β3γ2, HEK293, 1 nM [^3H]EBOB, no GABA): 11.1 ± 1.4 µM
- brain concentration [5]: 1000 nM
- concentration at which GABA-independent radioligand displacement was evident ([6]; α6β3, 1 nM [^3H]EBOB): ≥ 100 nM
- IC50 ([6]; α6β3, HEK293, 1 nM [^3H]EBOB, no GABA): 0.4 ± 0.02 µM
- effect on 5 nM [^3H]GABA binding [7]: concentration-dependent stimulation
- effect on 2 nM [^3H]muscimol binding [8]: concentration-dependent stimulation
- maximal increased specific [^3H]muscimol binding [9, 19]: 166 ± 5 % of control
- effect on 2 nM [^3H]muscimol binding [10]: no significant effect
- effect on 2 nM [^3H]muscimol binding [11]: stimulated
- maximal increased specific [^3H]muscimol binding [12, 19]: 240 ± 23 % of control binding
- effect on 2 nM [^3H]muscimol binding [13]: stimulated
- concentration at which GABA-independent radioligand displacement was evident ([14]; 1 nM [^3H]EBOB): ≥ 100 nM
- IC50 ([14]; HEK293, 1 nM [^3H]EBOB, no GABA): 1.1 ± 0.2 µM

SMILES: Oc1noc2c1CCNC2 [THIP, 4,5,6,7-tetrahydroisoxazolo[5,4-c]pyridin-3-ol]
- IC50 [15]: 220 ± 50 µM
- IC50 [16]: 200 ± 110 µM

SMILES: [3H]C([3H])(N)c1cc(=O)[nH]o1 [[^3H]muscimol]
- Kd ([17]; with AA29504 (10 µM), 22 °C): 0.03 ± 0.003 µM
- Kd ([17]; without AA29504, 22 °C): 0.053 ± 0.006 µM
- association rate constant Kon [9, 20]: 2.2 ± 0.3 × 10^8 M^−1 × min^−1
- dissociation rate constant Koff [9, 20]: 0.00633 ± 0.00033 s⁻¹
- association rate constant Kon [12, 20]: 5.9 ± 0.6 × 10^8 M^−1 × min^−1
- dissociation rate constant Koff [12, 20]: 0.011 ± 0.0005 s⁻¹
- Kd ([18]; with AA29504 (10 µM), 22 °C, one-site model, read-out: KD): 0.023 ± 0.004 µM
- Kd ([18]; without AA29504, 22 °C, read-out: KD, site (1) of two-site model): 0.0041 ± 0.0036 µM
- Kd ([18]; without AA29504, 22 °C, read-out: KD, site (2) of two-site model (converted)): 0.04 µM

From PMC8847198, “The Influence of AA29504 on GABAA Receptor Ligand Binding Properties and Its Implications on Subtype Selectivity” (Neurochemical Research, 2021)
